Assay results as given in patent US20040082623A1, “Fmoc-l-leucine and derivatives thereof as ppar-gamma agonists” (priority 2003, published 2004).

Legend:
PPARγ2 [1] = target: T1, PPARγ2 (Homo sapiens, UniProt P37231); test: Transient transfection, PPARγ2 reporter (luciferase/β-galactosidase) in Hep G2 cells; format: cell-based; set-up: a construct containing the entire cDNA of the human PPARγ2 (hPPARγ2); expressed in transfected cells; host or cells: Hep G2; settings: HepG2 cells, pSG5-hPPARγ2, 24 h, F-L-leu at 10^−5 M
T1 sequence (P37231 1-505): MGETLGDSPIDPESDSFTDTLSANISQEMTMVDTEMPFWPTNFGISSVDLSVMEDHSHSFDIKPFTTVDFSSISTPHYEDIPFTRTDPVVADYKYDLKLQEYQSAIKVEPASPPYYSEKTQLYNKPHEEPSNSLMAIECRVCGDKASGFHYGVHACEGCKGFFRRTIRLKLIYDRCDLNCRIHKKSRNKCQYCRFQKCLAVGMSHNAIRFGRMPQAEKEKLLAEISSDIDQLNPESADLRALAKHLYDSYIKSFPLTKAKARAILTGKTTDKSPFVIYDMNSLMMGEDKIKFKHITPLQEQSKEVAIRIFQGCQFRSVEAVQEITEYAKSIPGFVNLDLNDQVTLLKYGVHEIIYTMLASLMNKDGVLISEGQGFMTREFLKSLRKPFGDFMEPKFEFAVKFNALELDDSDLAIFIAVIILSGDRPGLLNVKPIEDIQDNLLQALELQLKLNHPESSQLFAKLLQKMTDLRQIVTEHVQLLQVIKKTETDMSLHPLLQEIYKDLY
Experimental: Hep G2 cells were co-transfected with an expression vector for PPARγ2 (0.1 μg/well), pGL3-(Jwt)3TKLuc reporter construct (0.5 μg/well), and pCMV-βGal (0.5 μg/well), as a control of transfection efficiency (0.5 μg/well). The were then grown during 24 h in the presence or absence of indicated compound Activation is expressed as relative luciferase activity/β-galactosidase activity. Each point was performed in triplicate. This figure is representative of three independent experiments.
(§1) RK13 cells (A and D), CV1 cells (B) or Hep G2 cells (C) were co-transfected with an expression vector for PPARγ2 (0.1 μg/well), pGL3-(Jwt)3TKLuc reported construct (0.5 μg/well), and pCMV-βGal (0.5 μg/well), as a control of transfection efficiency (0.5 μg/well). They were then grown during 24 h in the presence or absence of indicated compound. Activation is expressed as relative luciferase activity/β ? galactosidase activity. Each point was performed in triplicate, and each figure i ? representative of four independent experiments.
(§2) The CV1, RK-13, and Hep G2 cell lines were obtained from ATCC (Rockville, Md.). Cells were maintained in Dulbecco's modified Eagle's minimal essential medium (DMEM) supplemented with 10% fetal calf serum (FCS), L-glutamine, and antibiotics. Transfections with chloramphenicol acetyltransferase (CAT) or luciferase (luc.) reporter constructs were carried out exactly as described previously (Schoonjans et al., 1996). The pGL3-(Jwt)3TKLuc and the pGL3-(Jwt)3TKCAT reporter constructs contain both three tandem repeats of the J site of the apolipoprotein A-II promoter cloned upstream of the herpes simplex virus thymidine kinase (TK) promoter and the luciferase or the CAT reporter genes respectively (Vu-Dac et al., 1995). The following expression vectors were used; pSG5-hPPARγ2, a construct containing the entire cDNA of the human PPARγ2 (hPPARγ2) (Fajas et al., 1997); pSG5-mPPARα (Isseman et al., 1993); and pCMV-βGal, as a control of transfection efficiency.

PPARγ2 [2] = target: T1, PPARγ2; test: Transient transfection, PPARγ2 reporter in RK13 cells; format: cell-based; set-up: a construct containing the entire cDNA of the human PPARγ2 (hPPARγ2); expressed in transfected cells; host or cells: Hep G2, RK13 or CV1 cells; settings: RK13 cells, 10^−5 M added
Experimental: as §1, §2

db/db mice = settings: db/db
Experimental: Intraperitoneal glucose tolerance test (IPGTT) in C57BL/6j (A) or db/db (B) mice 10 to 12 weeks old (n=8).
All mice were maintained in a temperature-controlled (25° C.) facility with a strict 12 h ? light/dark cycle and were given free access to food (standard mice chow; DO4, UAR ? France) and water.
C57B1/6J and db/db mice (8 per group) were obtained through the Janvier laboratorie ? (Laval-Le Genest, France).

SMILES	PPARγ activation (relative luciferase activity/β-galactosidase activity) (PPARγ2 [1])	PPARγ activation (relative luciferase activity/β-galactosidase activity) (PPARγ2 [1]; listed as FMOC substituted L-tyrosine derivative)	modification of PPARγ activity when added to a saturating concentration of rosiglitazone (PPARγ2 [2])	maximal glycemia in IPGTT (db/db mice; 10 mg/kg/day i.p., 7 days, DMSO control 500) [mg/dL]	body weight vs control mice (db/db mice; 10 mg/kg/day, 8 days)	fasting serum insulin levels (mean) (db/db mice; 7 days treatment, DMSO group 180) [μUI/mL]
O=C(N[C@@H](Cc1ccc(O)cc1)C(=O)O)OCC1c2ccccc2-c2ccccc21 [FMOC-L-tyrosine, reference compound]	devoid of	did not activate PPARγ	No significant modification			
CC(C)C[C@@H](NC(=O)OCC1c2ccccc2-c2ccccc21)C(=O)O [FMOC-D-leucine, reference compound]	no significant PPARγ activation		No significant modification			
CN(CCOc1ccc(CC2SC(=O)NC2=O)cc1)c1ccccn1 (centres unmarked) [rosiglitazone, reference compound]				350	tendency to increase body weight	70
